Laboratory results reported in PubChem BioAssay (NCI).
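The compound was tested at five concentrations on cells cultured in 96-well plates, with a 48-hour exposure period. TGI marks complete inhibition of growth.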

Each compound was assayed on SK-MEL-2 melanoma (assay: NCI anticancer screen, dose series, 48 h).

Point of comparison: `CN(C)CCNC(=O)c1cccc2nc3c(ccc4ccccc43)nc12`, TGI 3.86 µM. Against it:
- CCCCCCCCCCCCC(=O)CCCCC(=O)O — 12-fold higher, 47.4 µM
- COc1cc2c(c(OC)c1OC)CCNC2C1=C(O)COC1=O (stereo not drawn) — higher, > 100 µM
- NCCCNC(=O)c1csc(NC(=O)c2csc(NC(=O)CCCN)n2)n1 — higher, > 100 µM

Each compound was assayed on SK-MEL-28 melanoma (assay: NCI anticancer screen, dose series, 48 h).

Point of comparison: `CCCCCCCCCCCCC(=O)CCCCC(=O)O`, TGI 46.5 µM. Against it:
- CN(C)CCNC(=O)c1cccc2nc3c(ccc4ccccc43)nc12 — 11-fold lower, 4.37 µM
- NCCCNC(=O)c1csc(NC(=O)c2csc(NC(=O)CCCN)n2)n1 — higher, > 100 µM

These compounds were tested on SK-MEL-5 melanoma (assay: NCI anticancer screen, dose series, 48 h).

Point of comparison: `CN(C)CCNC(=O)c1cccc2nc3c(ccc4ccccc43)nc12`, TGI 4.03 µM. Against it:
- CCCCCCCCCCCCC(=O)CCCCC(=O)O — 8.5-fold higher, 34.1 µM
- COc1cc2c(c(OC)c1OC)CCNC2C1=C(O)COC1=O (stereo not drawn) — higher, > 100 µM
- NCCCNC(=O)c1csc(NC(=O)c2csc(NC(=O)CCCN)n2)n1 — higher, > 100 µM

Each compound was assayed on SK-OV-3 ovarian (assay: NCI anticancer screen, dose series, 48 h).

Point of comparison: `CN(C)CCNC(=O)c1cccc2nc3c(ccc4ccccc43)nc12`, TGI 24.2 µM. Against it:
- CCCCCCCCCCCCC(=O)CCCCC(=O)O — higher, > 100 µM
- COc1cc2c(c(OC)c1OC)CCNC2C1=C(O)COC1=O (stereo not drawn) — higher, > 100 µM
- NCCCNC(=O)c1csc(NC(=O)c2csc(NC(=O)CCCN)n2)n1 — higher, > 100 µM

What follows are compounds tested on SN12C renal (assay: NCI anticancer screen, dose series, 48 h).

Point of comparison: `CN(C)CCNC(=O)c1cccc2nc3c(ccc4ccccc43)nc12`, TGI 14.6 µM. Against it:
- CCCCCCCCCCCCC(=O)CCCCC(=O)O — 3.8-fold higher, 55.8 µM
- COc1cc2c(c(OC)c1OC)CCNC2C1=C(O)COC1=O (stereo not drawn) — higher, > 100 µM
- NCCCNC(=O)c1csc(NC(=O)c2csc(NC(=O)CCCN)n2)n1 — higher, > 100 µM

What follows are compounds tested on SNB-19 CNS (assay: NCI anticancer screen, dose series, 48 h).

Point of comparison: `CN(C)CCNC(=O)c1cccc2nc3c(ccc4ccccc43)nc12`, TGI 18.1 µM. Against it:
- CCCCCCCCCCCCC(=O)CCCCC(=O)O — higher, > 100 µM
- COc1cc2c(c(OC)c1OC)CCNC2C1=C(O)COC1=O (stereo not drawn) — higher, > 100 µM

What follows are compounds tested on SNB-75 CNS (assay: NCI anticancer screen, dose series, 48 h).

Point of comparison: `CCCCCCCCCCCCC(=O)CCCCC(=O)O`, TGI 71.1 µM. Against it:
- COc1cc2c(c(OC)c1OC)CCNC2C1=C(O)COC1=O (stereo not drawn) — higher, > 100 µM
- CN(C)CCNC(=O)c1cccc2nc3c(ccc4ccccc43)nc12 — 4.3-fold lower, 16.5 µM
- NCCCNC(=O)c1csc(NC(=O)c2csc(NC(=O)CCCN)n2)n1 — higher, > 100 µM

Each compound was assayed on SNB-78 CNS (assay: NCI anticancer screen, dose series, 48 h).

Point of comparison: `CN(C)CCNC(=O)c1cccc2nc3c(ccc4ccccc43)nc12`, TGI 19.4 µM. Against it:
- CCCCCCCCCCCCC(=O)CCCCC(=O)O — higher, > 100 µM
- COc1cc2c(c(OC)c1OC)CCNC2C1=C(O)COC1=O (stereo not drawn) — higher, > 100 µM
- NCCCNC(=O)c1csc(NC(=O)c2csc(NC(=O)CCCN)n2)n1 — higher, > 100 µM

What follows are compounds tested on SR leukemia (assay: NCI anticancer screen, dose series, 48 h).

Point of comparison: `CN(C)CCNC(=O)c1cccc2nc3c(ccc4ccccc43)nc12`, TGI 4.25 µM. Against it:
- CCCCCCCCCCCCC(=O)CCCCC(=O)O — 11-fold higher, 47 µM
- COc1cc2c(c(OC)c1OC)CCNC2C1=C(O)COC1=O (stereo not drawn) — higher, > 100 µM
- NCCCNC(=O)c1csc(NC(=O)c2csc(NC(=O)CCCN)n2)n1 — higher, > 100 µM

These compounds were tested on SW-620 colon (assay: NCI anticancer screen, dose series, 48 h).

Point of comparison: `CN(C)CCNC(=O)c1cccc2nc3c(ccc4ccccc43)nc12`, TGI 3.61 µM. Against it:
- CCCCCCCCCCCCC(=O)CCCCC(=O)O — higher, > 100 µM
- COc1cc2c(c(OC)c1OC)CCNC2C1=C(O)COC1=O (stereo not drawn) — higher, > 100 µM

These compounds were tested on T-47D breast (assay: NCI anticancer screen, dose series, 48 h).

In the case of `CN(C)CCNC(=O)c1cccc2nc3c(ccc4ccccc43)nc12`, the TGI is reported as 20.6 µM.

What follows are compounds tested on TK-10 renal (assay: NCI anticancer screen, dose series, 48 h).

Point of comparison: `CN(C)CCNC(=O)c1cccc2nc3c(ccc4ccccc43)nc12`, TGI 20.6 µM. Against it:
- CCCCCCCCCCCCC(=O)CCCCC(=O)O — higher, > 100 µM
- COc1cc2c(c(OC)c1OC)CCNC2C1=C(O)COC1=O (stereo not drawn) — higher, > 100 µM
- NCCCNC(=O)c1csc(NC(=O)c2csc(NC(=O)CCCN)n2)n1 — higher, > 100 µM

What follows are compounds tested on U251 CNS (assay: NCI anticancer screen, dose series, 48 h).

Point of comparison: `CN(C)CCNC(=O)c1cccc2nc3c(ccc4ccccc43)nc12`, TGI 4.49 µM. Against it:
- CCCCCCCCCCCCC(=O)CCCCC(=O)O — 18-fold higher, 79 µM
- COc1cc2c(c(OC)c1OC)CCNC2C1=C(O)COC1=O (stereo not drawn) — higher, > 100 µM
- NCCCNC(=O)c1csc(NC(=O)c2csc(NC(=O)CCCN)n2)n1 — higher, > 100 µM

Each compound was assayed on UACC-257 melanoma (assay: NCI anticancer screen, dose series, 48 h).

Point of comparison: `CN(C)CCNC(=O)c1cccc2nc3c(ccc4ccccc43)nc12`, TGI 3.4 µM. Against it:
- CCCCCCCCCCCCC(=O)CCCCC(=O)O — higher, > 100 µM
- COc1cc2c(c(OC)c1OC)CCNC2C1=C(O)COC1=O (stereo not drawn) — higher, > 100 µM
- NCCCNC(=O)c1csc(NC(=O)c2csc(NC(=O)CCCN)n2)n1 — higher, > 100 µM

What follows are compounds tested on UACC-62 melanoma (assay: NCI anticancer screen, dose series, 48 h).

Point of comparison: `CCCCCCCCCCCCC(=O)CCCCC(=O)O`, TGI 36.1 µM. Against it:
- COc1cc2c(c(OC)c1OC)CCNC2C1=C(O)COC1=O (stereo not drawn) — higher, > 100 µM
- CN(C)CCNC(=O)c1cccc2nc3c(ccc4ccccc43)nc12 — 6.9-fold lower, 5.2 µM
- NCCCNC(=O)c1csc(NC(=O)c2csc(NC(=O)CCCN)n2)n1 — higher, > 100 µM

The compounds below were run on UO-31 renal (assay: NCI anticancer screen, dose series, 48 h).

Point of comparison: `CN(C)CCNC(=O)c1cccc2nc3c(ccc4ccccc43)nc12`, TGI 14.9 µM. Against it:
- CCCCCCCCCCCCC(=O)CCCCC(=O)O — 4-fold higher, 60 µM
- COc1cc2c(c(OC)c1OC)CCNC2C1=C(O)COC1=O (stereo not drawn) — higher, > 100 µM
- NCCCNC(=O)c1csc(NC(=O)c2csc(NC(=O)CCCN)n2)n1 — higher, > 100 µM
